Laboratory results published in ChEMBL document CHEMBL1137043, “Development of a polyvalent assay system for lead identification” (Bioorg Med Chem Lett, 2004).
*1 amine or outer side, *2 acyl side, *3 side chain or, on linkers, in order; H or OH if unused. Where a SMILES comes first, the peptide text is derived from it. [ ]: non-standard residue; d: D form. X1 = O=C(O)COc1ccc(C[C@H](N[*:1])C(=O)[*:2])cc1C(=O)O

These compounds were tested against T1, Tyrosine-protein phosphatase non-receptor type 1 (Homo sapiens, UniProt P18031) (assay: In vitro inhibitory concentration against Protein-tyrosine phosphatase 1B hydrolysis of p-nitrophenol phosphate).
T1 sequence (P18031 whole entry): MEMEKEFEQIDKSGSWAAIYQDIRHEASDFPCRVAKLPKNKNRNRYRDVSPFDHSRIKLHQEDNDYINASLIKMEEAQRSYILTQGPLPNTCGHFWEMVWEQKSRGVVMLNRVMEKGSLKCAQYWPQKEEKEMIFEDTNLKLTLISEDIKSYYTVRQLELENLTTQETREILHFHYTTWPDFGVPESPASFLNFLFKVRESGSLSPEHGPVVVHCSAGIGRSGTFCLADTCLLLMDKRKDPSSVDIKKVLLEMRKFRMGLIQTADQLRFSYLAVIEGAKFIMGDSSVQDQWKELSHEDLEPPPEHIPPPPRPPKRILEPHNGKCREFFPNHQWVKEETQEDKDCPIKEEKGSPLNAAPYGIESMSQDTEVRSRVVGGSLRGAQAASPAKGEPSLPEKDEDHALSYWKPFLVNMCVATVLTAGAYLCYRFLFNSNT
CC[C@@H](C)[C@H](NC(=O)C(Cc1ccc(OCC(=O)O)c(C(=O)O)c1)NC(=O)[C@H](CC(=O)O)NC(C)=O)C(=O)N[C@@H](CCCN=C(N)N)C(N)=O (stereo partly drawn) gave a Ki of 11 µM. For CCC(C)[C@H](NC(=O)C(Cc1ccc(OCC(=O)O)c(C(=O)O)c1)NC(=O)[C@H](CC(=O)O)NC(C)=O)C(N)=O (stereo partly drawn), the Ki was 41 µM. CC[C@H](C)[C@H](NC(=O)[C@H](Cc1ccc(OCC(=O)O)c(C(=O)O)c1)NC(=O)[C@H](CC(=O)O)NC(C)=O)C(=O)N[C@@H](CCCN=C(N)N)C(=O)NCC(=O)NCC(=O)NCC(N)=O (Ac-D[X1]IRGGG-NH2) showed a Ki of 18 µM.
